Here are results for five compounds from patent EP0787717A1, “Substituted diaryl dicarboxylic acid diguanidines, process for their preparation, their use as inhibitors of the Na+/H+ exchange as well as medicament or diagnostic agent containing them” (HOECHST AKTIENGESELLSCHAFT, priority 1996, dated 1997).

This assay addresses T1, Na ^+/H ^+-Exchangers von Kaninchenerythrocyten (Oryctolagus cuniculus, UniProt P23791).
T1 construct: den Na ^+-Influx in die Erythrocyten via Na ^+/H ^+-Austausch flammenphotometrisch bestimmen zu können; from tissue; host or cells: Erythrocytes in whole blood from the ear arteries of cholesterol-fed New Zealand White rabbits
The assay is described as follows: Inhibition of the Na+/H+ exchanger of rabbit erythrocytes (amiloride-sensitive sodium influx, flame photometry). The class given is cell-based, Kaninchen. The conditions noted are these: hyperosmolar salt-sucrose medium, pH 7,4, 37°C, read-out: IC50 Inhibition des Na ^+/H ^+ -Exchangers. An excerpt: Inhibition des Na ^+/H ^+-Exchangers von Kaninchenerythrocyten Weiße Neuseeland-Kaninchen (Ivanovas) erhielten eine Standard-Diät mit […] für sechs Wochen, um den Na ^+ /H ^+-Austausch zu aktivieren und so den Na ^+-Influx in die Erythrocyten via Na ^+/H ^+-Austausch flammenphotometrisch bestimmen zu können. Das Blut wurde den Ohrarterien entnommen und durch 25 IE Kalium-Heparin ungerinnbar gemacht. Ein Teil jeder Probe wurde zur Doppelbestimmung des Hämatokrits durch Zentrifugieren benutzt. Aliquots von jeweils 100 µl dienten zur Messung des Na ^+-Ausgangsgehalts der Erythrocyten.
Um den Amilorid-sensitiven Natrium-Influx zu bestimmen, wurden 100 µl jeder Blutprobe in jeweils 5 ml eines hyperosmolaren Salz-Sucrose-Mediums (mmol/l: 140 NaCl, 3 KCl, 150 Sucrose, 0,1 Ouabain, 20 Tris-hydroxymethylaminomethan) bei pH 7,4 und 37°C inkubiert. Die Erythrocyten wurden danach dreimal mit eiskalter MgCl2-Ouabain-Lösung (mmol/l: 112 MgCl2, 0,1 Ouabain) gewaschen und in 2,0 ml destilliertem Wasser hämolysiert. Der intrazelluläre Natriumgehalt wurde flammenphotometrisch bestimmt.
Der Na ^+-Nettoinflux wurde aus der Differenz zwischen Natrium-Ausgangswerten und dem Natriumgehalt der Erythrocyten nach Inkubation errechnet. Der Amiloridhemmbare Natrium-Influx ergab sich aus der Differenz des Natriumgehalts der Erythrocyten nach Inkubation mit und ohne Amilorid 3 x 10^-4 mol/l. Auf diese Weise wurde auch bei den erfindungsgemäßen Verbindungen verfahren.

T1 sequence (P23791 whole entry): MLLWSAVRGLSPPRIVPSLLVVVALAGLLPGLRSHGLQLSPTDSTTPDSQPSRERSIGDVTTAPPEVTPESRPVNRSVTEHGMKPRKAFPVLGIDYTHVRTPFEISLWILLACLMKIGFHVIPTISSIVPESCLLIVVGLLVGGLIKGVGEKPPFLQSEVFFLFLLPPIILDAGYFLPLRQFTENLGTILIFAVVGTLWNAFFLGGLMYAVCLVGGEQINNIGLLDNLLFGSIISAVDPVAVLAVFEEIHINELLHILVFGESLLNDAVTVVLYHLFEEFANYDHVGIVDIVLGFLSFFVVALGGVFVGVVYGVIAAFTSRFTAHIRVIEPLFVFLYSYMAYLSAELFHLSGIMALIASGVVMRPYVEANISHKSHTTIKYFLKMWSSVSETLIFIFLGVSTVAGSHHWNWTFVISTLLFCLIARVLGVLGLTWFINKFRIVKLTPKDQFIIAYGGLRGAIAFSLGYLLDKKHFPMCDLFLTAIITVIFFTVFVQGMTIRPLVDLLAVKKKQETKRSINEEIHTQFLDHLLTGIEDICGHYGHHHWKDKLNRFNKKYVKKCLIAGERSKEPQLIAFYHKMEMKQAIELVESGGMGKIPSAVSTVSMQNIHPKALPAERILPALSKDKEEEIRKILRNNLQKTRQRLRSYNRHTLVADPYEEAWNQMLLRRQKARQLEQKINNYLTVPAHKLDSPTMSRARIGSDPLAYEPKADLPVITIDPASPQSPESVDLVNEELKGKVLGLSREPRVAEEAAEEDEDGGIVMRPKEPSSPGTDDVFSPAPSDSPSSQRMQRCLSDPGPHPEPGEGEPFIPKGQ

Turning to `NC(N)=NC(=O)c1ccc(-c2ccccc2C(=O)N=C(N)N)cc1` [Beispiel 2, 2-(4-Guanidinocarbonyl)phenyl-benzoylguanidin], the IC50 came out at 5000 nM.

As for `NC(N)=NC(=O)c1ccc(-c2cccc(C(=O)N=C(N)N)c2)cc1` [Beispiel 1, 3-(4-Guanidinocarbonyl)phenyl-benzoylguanidin], the IC50 is 1500 nM.

On to `NC(N)=NC(=O)c1ccc(-c2ccc(C(=O)N=C(N)N)cc2)cc1` [Beispiel 4, Biphenyl-4,4'-dicarbonsäure-diguanidid], for which the IC50 came out at 2000 nM. In the case of “4-(4-Guanidinocarbonyl)phenylsulfamoyl-benzoylguanidin [Beispiel 3]”, the IC50 was determined as 1500 nM. Turning to `NC(N)=NC(=O)c1ccc(S(=O)(=O)NC(=O)Nc2cccc(C(=O)N=C(N)N)c2)cc1` [Beispiel 5, 4[3-(Guanidinocarbonyl)phenylaminocarbonylaminosulfonyl]-benzoylguanidin], the IC50 is 10000 nM.
